Test results reported in patent EP0294292A2, “Derivative of benzo[b]thiophene-7-carboxylic acid, process for its preparation and pharmaceutical compositions containing it” (ADIR ET COMPAGNIE, priority 1987, dated 1988).

Tested on: récepteurs 5HT - 3
Experiment: Inhibition of the Bezold-Jarisch effect (reflex bradycardia after i.v. serotonin) in the anaesthetised rat
Type: in vivo
Text: Cette propriété est indicatrice d'un effet antagoniste des récepteurs 5HT - 3.
Cette étude est réalisée sur des rats Charles River d'un poids compris entre 350 et 400 g anesthésiés par une dose de 1,25 g.kg⁻¹ d'uréthanne administré intrapéritonéalement. La pression artérielle est enregistrée au niveau d'une artère carotide au moyen d'une cellule de pression Statham P 23 dB. La fréquence cardiaque est enregistrée à partir de la pression artérielle en utilisant un cardiotachymètre. Les enregistrements sont réalisés sur un enregistreur GOULD 2400. Un cathéter est placé dans la veine jugulaire et atteint l'oreillette droite de l'animal. L'effet Bezold-Jarisch est provoqué par une injection rapide de sérotonine à la dose de 40 µg/kg par voie intraveineuse dans l'oreillette droite. Le ralentissement cardiaque est associé à une chute de la pression artérielle qui provient de la stimulation des fibres afférentes vagales principalement localisées dans le ventricule droit.
Les produits à tester sont administrés par voie intraveineuse aux doses de 10 µg/kg, 100 µg/kg et 1 mg/kg. Un effet Bezold-Jarisch est provoqué 5, 15, 30, 45, 60, 90 et 120 minutes après injection des produits testés.
Le pourcentage d'inhibition de la bradycardie réflexe est évalué à partir du tracé de fréquence cardiaque. Les pourcentages d'inhibition provoqués par le produit de l'invention, ses isomères, des produits structuralement voisins, ainsi que par le produit de référence ICS 205930 sont indiqués dans le tableau I qui donne l'inhibition en % du réflexe Bezold chez le rat en fonction du temps; tous les produits ont été administrés par voie i.v à la même dose de 10 µg/kg.; les tests ont été réalisés sur 8 animaux.

SMILES	Inhibition % après 15 min. (inhibition of reflex bradycardia (Bezold reflex), rat, i.v. 10 µg/kg, 15 min after injection, serotonin 40 µg/kg i.v., 8 animals)	Inhibition % après 30 min. (inhibition of reflex bradycardia (Bezold reflex), rat, i.v. 10 µg/kg, 30 min after injection, serotonin 40 µg/kg i.v., 8 animals)	Inhibition % après 60 min. (inhibition of reflex bradycardia (Bezold reflex), rat, i.v. 10 µg/kg, 60 min after injection, serotonin 40 µg/kg i.v., 8 animals)	Inhibition % après 120 min. (inhibition of reflex bradycardia (Bezold reflex), rat, i.v. 10 µg/kg, 120 min after injection, serotonin 40 µg/kg i.v., 8 animals)	effet Bezold-Jarisch (bradycardie et hypotension après injection de sérotonine) (rat, i.v., doses between 10 µg/kg and 1 mg/kg, result in words)	activité antagoniste 5HT₃ (summary in words, refers to tableau I)
CN1[C@@H]2CC[C@H]1C[C@@H](OC(=O)c1c[nH]c3ccccc13)C2 [ICS 205-930]	79%	65%	14%	inactif	–	–
CN1C2CCC1CC(OC(=O)c1cccc3ccsc13)C2 (stereo not drawn) [Exemple 1, Chlorhydrate d'endo [(méthyl - 8 aza - 8 bicyclo [3.2.1]octyl - 3)oxycarbonyl] - 7 benzo [b] thiphène]	–	–	–	–	antagonise de façon intense et prolongée	actif
